Test results published in patent US4347178A, “Compounds and methods of making” (Burroughs Wellcome Co., priority 1980, dated 1982).

Legend:
anti-compound 1 sera = test: RIA of bupropion using compound 6 with anti-compound 1 sera; type: biochemical
Description: Samples of six standard solutions of bupropion in blank plasma having concentrations of 0.39 to 50 ng/ml) are pipetted (0.1 ml each) in duplicate into 12×75 mm plastic tubes. Duplicate non-specific binding (no antibody) and maximum binding tubes (no unlabeled bupropion) receive 0.1 ml blank plasma. Spiked plasma controls at several concentrations of (e.g., 1.0, 10.0, and 100 ng/ml) and plasma samples for assay (diluted into the standard range with blank plasma if necessary) are assayed in duplicate. After being placed in an ice bath, all tubes receive (in order) 0.2 ml ^3 H bupropion (416 pg. containing approximately 10^4 cpm) and 0.7 ml anti-bupropion serum (raised to a ring-functionalized immunogen according to the present invention) (at pre-determined dilutions such that approximately 40% of the ^3 H bupropion added is bound), both in assay buffer (0.05 M phosphate-bufferedisotonic saline, containing 0.01 M EDTA and 0.1% gelatin, pH 7.0). […] The supernatants, containing antibody-bound ^3 H bupropion are carefully decanted into liquid scintillation cocktail for quantitation of ^3 H. After counts (minus average non-specific binding cpm) are expressed as percentages of average maximum binding cpm, bupropion concentrations in plasma samples and spiked controls are read from a standard curve (log concentration vs percent average maximum binding). […]

[1] = tested on: anti-compound 2 sera and anti-compound 3 sera; test: RIA of bupropion using 125I-labeled bupropion competitors with anti-compound 2 sera and anti-compound 3 sera; type: biochemical; conditions: for RIA sensitivity compared with the compound 10 system: substitution of 7 or 8 as competitor, anti-compound 2 and anti-compound 3 sera
Description: Samples of six standard solutions of bupropion in blank plasma having concentrations of 0.39 to 50 ng/ml) are pipetted (0.1 ml each) in duplicate into 12×75 mm plastic tubes. Duplicate non-specific binding (no antibody) and maximum binding tubes (no unlabeled bupropion) receive 0.1 ml blank plasma. Spiked plasma controls at several concentrations of (e.g., 1.0, 10.0, and 100 ng/ml) and plasma samples for assay (diluted into the standard range with blank plasma if necessary) are assayed in duplicate. After being placed in an ice bath, all tubes receive (in order) 0.2 ml ^3 H bupropion (416 pg. containing approximately 10^4 cpm) and 0.7 ml anti-bupropion serum (raised to a ring-functionalized immunogen according to the present invention) (at pre-determined dilutions such that approximately 40% of the ^3 H bupropion added is bound), both in assay buffer (0.05 M phosphate-bufferedisotonic saline, containing 0.01 M EDTA and 0.1% gelatin, pH 7.0). Non-specific binding tubes receive 0.7 ml assay buffer.) Following incubation either at 25° C. for 2 hours or overnight at 4° C., bound and free ^3 H bupropion are separated by incubation for 10 min at 0° C. with 0.5 ml ice-cold dextran-coated charcoal solution (0.25% dextran, 5 mg/ml charcoal, in assay buffer) followed by centrifugation for 10 minutes at 4° C. […] The supernatants, containing antibody-bound ^3 H bupropion are carefully decanted into liquid scintillation cocktail for quantitation of ^3 H. After counts (minus average non-specific binding cpm) are expressed as percentages of average maximum binding cpm, bupropion concentrations in plasma samples and spiked controls are read from a standard curve (log concentration vs percent average maximum binding).
RIA's have been run according to the method of Example X utilizing ^125 I labeled bupropion competitors of the present invention in conjunction with antisera obtained following immunization with immunogens of the present invention. […] Following the ethanol precipation of antibody-bound ^125 I-bupropion competitior at equilibrium, ^125 I in the protein pellets was quantified.

| SMILES | RIA sensitivity compared with the compound 10 system [1] | also measured |
| --- | --- | --- |
| CC(NC(C)(C)C)C(=NOCC(=O)NCCc1ccc(O)c([125I])c1)c1cccc(Cl)c1 (stereo not drawn) [compound 6, α-t-Butylamino-3-chloropropiophenone-carboxymethyloxime-^125 I-tyramine amide] | – | RIA sensitivity (anti-compound 1 sera): least sensitive RIA |
| CC(NC(C)(C)C)C(=O)c1ccc(OCC(=O)NCCc2ccc(O)c([125I])c2)c(Cl)c1 (stereo not drawn) [compound 7, α-t-Butylamino-3-chloro-4-carbomethoxypropiophenone-^125 I-tyramine amide] | approximately equal to that obtained with the compound 10 system | – |
| CC(NC(C)(C)C)C(=O)c1ccc(CCCOC(=O)CCC(=O)NCCc2ccc(O)c([125I])c2)c(Cl)c1 (stereo not drawn) [compound 8, α-t-Butylamino-3-chloro-4-γ-hydroxypyropylpropiophenone-hemisuccinate-^125 I-tyramine amide] | approximately equal to that obtained with the compound 10 system | – |
| CC(NC(C)(C)C)C(=O)c1ccc(O)c([125I])c1 (stereo not drawn) [compound 9, ^125 I-α-t-Butylamino-3-iodo-4-hydroxypropiophenone] | – | RIA sensitivity relative to the compound 10 (3H bupropion) assay system ([1]; in conjunction with either antisera (anti-compound 2 or anti-compound 3)): approximately ten |
